# Reference: patent US8598187B2, “Arylamide pyrimidone compounds” (Sanofi, priority 2007, dated 2013)
# Biological target: GSK3β (Homo sapiens, UniProt P49841)
# Assay: Inhibitory activity against GSK3β (33P-ATP phosphorylation of prephosphorylated GS1 peptide, two protocols)
# Format: biochemical
# Conditions: protocol 1 or 2 not specified
# Experimental: Inhibitory Activity of the Medicament of the Present Invention Against GSK3β
# Two different protocols can be used.
# In a first protocol: 7.5 μM of prephosphorylated GS1 peptide and 10 μM ATP (containing 300,000 cpm of ^33P-ATP) were incubated in 25 mM Tris-HCl, pH 7.5, 0.6 mM DTT, 6 mM MgCl2, 0.6 mM EGTA, 0.05 mg/ml BSA buffer for 1 hour at room temperature in the presence of GSK3beta (total reaction volume: 100 microliters).
# In a second protocol: 4.1 μM of prephosphorylated GS1 peptide and 42 μM ATP (containing 260,000 cpm ^33P-ATP) were incubated in 80 mM Mes-NaOH, pH 6.5, 1 mM Mg acetate, 0.5 mM EGTA, 5 mM 2-mercaptoethanol, 0.02% Tween 20, 10% glycerol buffer for 2 hours at room temperature in the presence of GSK3beta. Inhibitors were solubilized in DMSO (final solvent concentration in the reaction medium, 1%).
# The reaction was stopped with 100 microliters of a solution made of 25 g polyphosphoric acid (85% P2O5), 126 ml 85% H3PO4, H2O to 500 ml and then diluted to 1:100 before use. An aliquot of the reaction mixture was then transferred to Whatman P81 cation exchange filters and rinsed with the solution described above. Incorporated ^33P radioactivity was determined by liquid scintillation spectrometry.
# The phosphorylated GS-1 peptide had the following sequence: NH2-[…](P)EDEE-COOH. SEQ ID NO: 1 (Woodgett, J. R. (1989) Analytical Biochemistry 180, 237-241. […]
# GSK3β, sequence (P49841 whole entry): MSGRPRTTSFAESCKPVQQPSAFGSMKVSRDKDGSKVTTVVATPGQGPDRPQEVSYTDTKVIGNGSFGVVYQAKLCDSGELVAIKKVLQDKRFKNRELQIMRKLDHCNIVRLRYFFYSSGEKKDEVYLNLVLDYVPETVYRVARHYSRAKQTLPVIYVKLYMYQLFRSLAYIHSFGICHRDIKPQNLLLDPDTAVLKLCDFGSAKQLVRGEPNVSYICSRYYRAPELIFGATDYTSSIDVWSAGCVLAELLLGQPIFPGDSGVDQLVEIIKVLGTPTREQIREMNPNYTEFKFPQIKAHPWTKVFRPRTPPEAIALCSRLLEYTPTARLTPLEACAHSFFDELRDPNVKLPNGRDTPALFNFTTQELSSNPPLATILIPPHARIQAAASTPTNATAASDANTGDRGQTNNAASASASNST
smiles,measurement,value
COc1cc(Cl)ccc1C(=O)NCCc1nc(-c2ccncn2)cc(=O)n1C [No. 1],IC50,85 nM
